Source: patent publication US6902728B1, “Chemokine receptor antagonist and cyclosporin in combined therapy” (Applied Research Systems ARS Holding N.V., priority 1998, dated 2005)
Where “and” joins values, the source holds several entries; their conditions need not be identical. Equal entries are not always repeated.

Experiments:
[1] = system: human microvascular endothelial cells (DMVEC); assay: FACS analysis of adhesion molecule surface expression on DMVEC; type: cell-based; conditions: IL-1β 5 ng/ml, 12 hr; 3 independent experiments
Protocol: Flow cytometry analysis of dermal microvascular cells (DMVEC) was performed essentially as described (Weber C. et al., 1995). Briefly, confluent DMVEC stimulated with IL-Iβ (5 ng/ml), or left untreated for 12 h, were trypsinized, reacted with IL-saturating concentrations of ICAM-1 mAb RR1/1 (kindly provided by Dr. R. Rothlein), E-selectin mAb, VCAM-1 mAb (both Serotec), or isotype control for 30 min on ice, stained with fluorescein isothiocyanate (FITC)-conjuzated goat anti-mouse IgG (Boehringer Mannheim), and analysed in a FACScan (Becton Dickinson). After correction for unspecific binding, data were expressed as specific mean log fluorescence intensity (sMFI) in channels.

[2] = system: MonoMac 6 cells on DMVEC; assay: Monocyte recruitment on microvascular endothelium under physiological flow (laminar flow assay); type: cell-based, human
Protocol: The interaction of monocytes with DMVEC was studied in laminar flow assays performed essentially as descried (Weber C. et al., 1997, Kukerti S. et al., 1997, Piali L. et al., 1998). Briefly, DMVEC were grown to confluence in 35 mm Petri dishes, and stimulated with IL-1β (5 ng/ml) or left untreated for 12 h. The plates were assembled as the lower wall m a parallel wall flow chamber and mounted on the stage of an Olympus IMT-2 inverted microscope with 20× and 40× phase contrast objectives. Monotypes (MonoMac 6 cells) were cultured as reported (Ziegler-Heitbrock H. W. L. et al., 1988, Weber C. et al., 1993) and resuspended at 10^6/ml in assay buffer (HBSS) containing 10 mM Hepes/pH 7.4 and 0.5% HAS. Shortly before assay, 1 mM Mg^2+and 1 mM Ca^2+ was added. The cell suspensions were kept in a heating block at 37° C. during the assay and were perfused into the flow chamber at a rate of 1.5 dyn/cm for 5 min. For inhibition experiments, monocytes were preincubated with Met-RANTES at different concentrations (0.01-1 μg/ml) for 30 min on ice. The number of firmly adherent cells after 5 rain was quantified in multiple fields (at least 5 per experiment) by analysis of images recorded with a long integration JVC 3CCD video camera and a JVC SR L 900 E video recorder, and were expressed as cells/mm^2. The type of adhesion analysed was restricted to primary, i.e. direct interactions of monocytes with endotbelium. As an inverse measure of firm arrest, the number of cells rolling at reduced velocity on endothelium was determined within the last 30 sec. of the 5 min intervals, and were assessed as the percentage of all interactions in the field. The number of cells spreading or transmigrating after 5 min intervals was determined in high power fields as described (Luscinskas F. W. et al., 1994), and expressed as percentage of cells firmly attached.
In an attempt to gain insight into potential mechanisms of action of Met-RANTES, we studied whether a blockade of RANTES receptors could inhibit the firm arrest and diapedesis of monocytes on microvascular endothelium. To this end, we used monocytic MonoMac 6 cells that show the adhesive characteristics and integrin repertoire of mature monocytes, and express several chemokine receptors including CCR1 (Erl W. et al., 1995). DMVEC were grown to confluence on Petri dishes which were either left unstimulated or were activated with IL-1β (5 ng/ml) for 12 h. […] Under such physiological flow conditions, MonoMac 6 cells undergo short periods of rolling, and the attachment of a proportion of cells can be readily converted into shear-resistant arrest. After 5 min of accumulation, the number of MonoMac 6 cells that had undergone firm adhesion to the endothelium was determined (FIG. 2(a)).

[3] = system: dermal microvascular endothelium (DMVEC); assay: In vitro RANTES binding assay on DMVEC (modified ELISA); parameters: species or system human
Protocol: The DMVEC were grown to confluency on coated 96 well flat bottom plates, The resultant endothelial monolayer was either left untreated or treated with various concentrations of IL-L1β (0.1 to 5 ng/ml) for 12 h. The RANTES binding assay was a modification of a previously described procedure (Pattison J. et al., 1994, Wiedermann C. J. et al., 1993). Horseradish, peroxidase (HRP) conjugated anti-human-RANTES monoclonal antibody VL1 (0.1 μg) was pre-incubated at 25° C. for 30 min with an excess of recombinant human RANTES (20 μg/ml) in DMVEC growth media (without supplements). The chemokine-antibody complex was added then used to assay the relative chemokine binding capacity of the microvascular endothelium. The endothelial monolayer was gently washed 1× with unsupplemented growth media (25° C.) and the chemokine-antibody complex was added and incubated at 25° C. for 30 min. The wells were then washed four times with media without sera at 25° C. […] The optical density at 406 nm of the plate was determined using an ELISA plate reader.
Since a reduction of monocyte infiltration into vascular luminal spaces represented a prominent feature of Met-RANTES treatment in both transplantation models, we set out to study potential mechanisms for this effect. […] Using an ELISA-like format, the capacity of DMVEC to bind the antigen-mAb complex as opposed to mAb alone was determined. […]

| RANTES binding to microvascular endothelium following prestimulation ([3]; prestimulation with proinflammatory cytokine (5 ng/ml, 12 hours)) | RANTES binding to microvascular endothelium without prestimulation ([3]; resting DMVEC, HRP-VL1 mAb/RANTES complex) | Substance | ICAM-1 surface expression, SMFI [1] | spreading or transmigration of monocytes ([2]; after firm arrest, 5 min, IL-1β activated DMVEC) | firm adhesion of monocytic cells to unstimulated microvascular endothelium ([2]; endothelial cells pre-exposed to RANTES) | firm arrest and accumulation of monocytes on IL-1β-activated microvascular endothelium ([2]; endothelium pre-exposed to RANTES (10 ng/ml, 30 min), within 5 min) | fraction of monocytes rolling on the activated microvascular endothelium ([2]; inverse measure of firm arrest, IL-1β activated DMVEC) |
| --- | --- | --- | --- | --- | --- | --- | --- |
|  |  | IL-1β: proinflammatory cytokine purchased from Sigma, used to activate DMVEC | 502 channels and 592 channels and 432 channels |  |  |  |  |
| greatly increased | could bind some RANTES protein | RANTES: recombinant human C-C chemokine (regulated upon activation, normal T-cell expressed and secreted) |  | did not alter | no significant effect | markedly enhanced | reduced |
